Test results from US20100291181A1, “THERAPEUTIC DEVICES FOR PATTERNED CELL GROWTH” (RUTGERS, THE STATE UNIVERSITY OF NEW JERSEY, priority 2002, published 2010).

Assays:
[1] = system: primary rat Schwann cells; test: Schwann cells plated on pattern of laminin lines, orientation analysis; format: cell-based
Procedure: Purified primary rat Schwann cells were obtained from Prof. M. B. Bunge, University of Miami, the Miami Project to Cure Paralysis, and maintained in tissue culture flasks with a growth media consisting of Dulbecco's Modified Eagle's Medium (DMEM, Sigma), 10% v/v fetal bovine serum (Gibco), L-glutamine (2 mM, BioWhittaker), penicillin/streptomycin (P/S, 50 U/mL/50 μg/mL, BioWhittaker), 10 μg/mL bovine pituitary extract (Collaborative), and 10 μM forskolin (Sigma).
Schwann cells were rinsed with phosphate buffered saline (PBS, BioWhittaker) and incubated with trypsin ([…], Sigma) for 3 min. An equal amount of serum containing media was added to deactivate the trypsin and the cells were concentrated by centrifugation. […]
The samples were imaged on a Zeiss LSM 410 confocal laser-scanning microscope (CLSM) with a computer controlled laser scanning assembly attached to the microscope using a 20× phase contrast objective in fluorescence mode. An Omnichrome 3 line Argon/Krypton laser (488, 568, 647 nm) was used as the excitation source for double fluorescence measurements, with excitation at 488 nm and 568 nm and emission at 512 nm and 605 nm. […]
Multiple images were taken randomly per sample and analyzed by Image Pro Plus image analysis software (Media Cybernetics). […] Major and minor axes were calculated as well as the angle created by the major axis and the direction of patterning (FIG. 7). […]

[2] = system: dorsal root ganglia or dissociated neurons; test: Dorsal root ganglia or dissociated neurons plated on laminin pattern; format: cell-based, chick; details: pattern of lines, PMMA substrate
Description: Biologically active molecules were stably adsorbed onto a polymeric substrate without chemical modification of the substrate and without the use of linkers. A nondegradable polymer, poly(methyl methylacrylate) (PMMA, […] thickness, Goodfellows) and a degradable polymer, such as poly(hydroxybutyrate (PHB), polycaprolactone or polycaprolactam), were used as polymeric substrates for application of a micropattern of laminin. See FIG. 2 for the general procedure. For these experiments, the polymers were compressed into thin films of 200 μm and cut to the size of coverslips. After activation, polymeric substrates were evaluated via x-ray photoelectron spectroscopy, and/or scanning electron microscopy. […] After laminin absorption, its deposition was determined by incubating the prepared slips with rabbit anti-laminin affinity isolated antibody and FITC-conjugated goat anti-rabbit IgG (see FIG. 3).
Dorsal root ganglia dissected from seven-day old chick embryos were either directly plated onto the patterned substrate or dissociated into individual neurons and plated. […]
The laminin stamped PMMA squares were rinsed with Hank's balanced saline solution and plated with dorsal root ganglia or dissociated neurons in minimal, serum-free media. The samples were incubated at 37° C. for 24 to 48 hours, imaged with a Zeiss laser scanning confocal microscope, and the images analyzed for pattern adherence. […]

Substance: laminin
- orientation of Schwann cells relative to direction of laminin patterning (0°) ([1]; monolayer, ellipse fitting, FIG. 7): majority of the cells are oriented at 0°
- process outgrowth along the pattern, Schwann cells ([1]; pattern of lines, FIG. 5): most neuronal processes adhere to and grow along the lines of the laminin pattern
- neuronal process outgrowth along the pattern [2]: most neuronal processes adhere to and grow along the lines of the laminin pattern
